Tests used:
[1] = cells; details: Influenza A virus, MDCK
[2] = test system: Coxsackievirus B4; format: functional; details: Enterovirus B, Vero
[3] = cells; details: MDCK
[4] = test system: Respiratory syncytial virus; format: functional, cell-based; details: human respiratory syncytial virus, HeLa
[5] = test system: Yellow fever virus; experiment: microbe, parasite or virus in culture; details: Vero
[6] = test system: Influenza B virus; experiment: microbe, parasite or virus in culture; details: B/Ned/537/05, MDCK
[7] = test system: Sindbis virus; format: functional; details: Vero
[8] = test system: Human respirovirus 3; experiment: microbe, parasite or virus in culture; details: Human respirovirus 3, Vero
[9] = test system: Vesicular stomatitis virus; experiment: microbe, parasite or virus in culture; details: HeLa
[10] = test system: Influenza A virus; format: functional, cell-based; details: A/Ned/378/05(H1N1), MDCK
[11] = test system: Punta Toro virus; format: functional; details: Vero
[12] = test system: Influenza A virus; format: functional, cell-based; details: A/Ned/378/05(H1N1), MDCK; remark: listed apart in the source
[13] = test system: MDCK; experiment: Cytotoxicity against dog MDCK cells assessed as reduction in cell viability measured after 5 to 6 days by MTS assay; format: cell-based, Canis lupus familiaris
[14] = test system: Mammalian orthoreovirus 1; format: functional; details: Mammalian orthoreovirus 1, Vero
[15] = cells; details: Influenza A virus, MDCK; remark: listed apart in the source
[16] = test system: Coxsackievirus B4; format: functional, cell-based; details: Enterovirus B, HeLa
[17] = test system: Respiratory syncytial virus; experiment: microbe, parasite or virus in culture; details: human respiratory syncytial virus, HeLa
[18] = Cytotoxicity against human HeLa cells assessed as alterations in cell morphology by microscopic analysis; format: cell-based

Compound: [H]/N=C(\N/C(=N/[H])Nc1ccc(Cl)cc1)NC(C)C [PROGUANIL]
- EC50 [1]: > 83 µM
- EC50 [2]: > 100 µM
- EC50 [3]: > 100 µM
- EC50 [4]: > 100 µM
- EC50 [5]: > 100 µM
- EC50 [6]: > 100 µM
- EC50 [7]: > 100 µM
- EC50 [8]: > 100 µM
- EC50 [9]: > 100 µM
- EC50 [10]: > 100 µM
- EC50 [11]: > 100 µM
- EC50 [12]: > 100 µM
- CC50 [13]: > 100 µM
- EC50 [14]: > 100 µM
- EC50 [15]: > 83 µM
- EC50 [16]: > 100 µM

Compound: CCC1(C)N=C(N)N=C(N)N1c1ccc(Cl)cc1 (stereo not drawn)
- EC50 [1]: > 83 µM
- EC50 [2]: > 100 µM
- EC50 [3]: 2.2 µM
- EC50 [4]: 5.4 µM
- EC50 [5]: > 100 µM
- EC50 [6]: 8.3 µM
- EC50 [7]: > 100 µM
- EC50 [8]: > 100 µM
- EC50 [9]: > 100 µM
- EC50 [10]: > 100 µM
- EC50 [11]: > 100 µM
- EC50 [12]: > 100 µM
- CC50 [13]: > 100 µM
- EC50 [14]: > 100 µM
- EC50 [15]: > 83 µM
- EC50 [16]: > 100 µM

Compound: CCOC(=O)c1ccc(N2C(N)=NC(N)=NC2(C)C)cc1
- EC50 [1]: > 83 µM
- EC50 [2]: > 100 µM
- EC50 [3]: > 100 µM
- EC50 [4]: > 100 µM
- EC50 [5]: > 100 µM
- EC50 [6]: > 100 µM
- EC50 [7]: > 100 µM
- EC50 [8]: > 100 µM
- EC50 [9]: > 100 µM
- EC50 [10]: > 100 µM
- EC50 [11]: > 100 µM
- EC50 [12]: > 100 µM
- CC50 [13]: > 100 µM
- EC50 [14]: > 100 µM
- EC50 [15]: > 83 µM
- EC50 [16]: > 100 µM

Compound: CC1N=C(N)N=C(N)N1c1ccc(Cl)cc1 (stereo not drawn)
- EC50 [1]: > 83 µM
- EC50 [2]: > 100 µM
- EC50 [3]: 4.9 µM
- EC50 [4]: 6.8 µM
- EC50 [5]: > 100 µM
- EC50 [6]: 17 µM
- EC50 [7]: > 100 µM
- EC50 [8]: > 100 µM
- EC50 [9]: > 100 µM
- EC50 [10]: > 100 µM
- EC50 [11]: > 100 µM
- EC50 [12]: > 100 µM
- CC50 [13]: > 100 µM
- EC50 [14]: > 100 µM
- EC50 [15]: > 83 µM
- EC50 [16]: > 100 µM

Compound: NC1=NC2(CCCCC2)N(c2ccc(Cl)cc2)C(N)=N1
- EC50 [1]: 49 µM
- EC50 [2]: > 100 µM
- EC50 [3]: 36 µM
- EC50 [4]: > 100 µM
- EC50 [5]: > 100 µM
- EC50 [6]: > 83 µM
- EC50 [7]: > 100 µM
- EC50 [8]: > 100 µM
- EC50 [9]: > 100 µM
- EC50 [10]: > 100 µM
- EC50 [11]: > 100 µM
- EC50 [12]: > 100 µM
- CC50 [13]: > 100 µM
- EC50 [14]: > 100 µM
- EC50 [15]: 10 µM
- EC50 [16]: > 100 µM

Compound: CC1(C)N=C(N)N=C(N)N1c1ccc(Br)cc1
- EC50 [1]: 19 µM
- EC50 [2]: > 100 µM
- EC50 [3]: 1 µM
- EC50 [4]: 0.16 µM
- EC50 [5]: > 100 µM
- EC50 [6]: 2.9 µM
- EC50 [7]: > 100 µM
- EC50 [8]: > 100 µM
- EC50 [9]: > 100 µM
- EC50 [10]: 21 µM
- EC50 [11]: > 100 µM
- EC50 [12]: 7.3 µM
- CC50 [13]: 53 µM
- EC50 [14]: > 100 µM
- EC50 [15]: 39 µM
- EC50 [16]: > 100 µM

Compound: CC1(C)N=C(N)N=C(Nc2ccc(Cl)cc2)N1
- EC50 [1]: > 83 µM
- EC50 [2]: > 100 µM
- EC50 [3]: > 100 µM
- EC50 [4]: > 100 µM
- EC50 [5]: > 100 µM
- EC50 [6]: > 100 µM
- EC50 [7]: > 100 µM
- EC50 [8]: > 100 µM
- EC50 [9]: > 100 µM
- EC50 [10]: > 100 µM
- EC50 [11]: > 100 µM
- EC50 [12]: > 100 µM
- CC50 [13]: > 100 µM
- EC50 [14]: > 100 µM
- EC50 [15]: > 83 µM
- EC50 [16]: > 100 µM

Compound: NC1=NC2(CCCC2)N(c2ccc(Cl)cc2)C(N)=N1
- EC50 [1]: > 83 µM
- EC50 [2]: > 100 µM
- EC50 [3]: 6.1 µM
- EC50 [4]: 8 µM
- EC50 [5]: > 100 µM
- EC50 [6]: 18 µM
- EC50 [7]: > 100 µM
- EC50 [8]: > 100 µM
- EC50 [9]: > 100 µM
- EC50 [10]: > 100 µM
- EC50 [11]: > 100 µM
- EC50 [12]: > 100 µM
- CC50 [13]: > 100 µM
- EC50 [14]: > 100 µM
- EC50 [15]: > 83 µM
- EC50 [16]: > 100 µM

Compound: CC1(C)N=C(N)N=C(N)N1c1cccc(C(F)(F)F)c1
- EC50 [2]: > 100 µM
- EC50 [17]: 0.03 µM
- EC50 [5]: > 100 µM
- EC50 [7]: > 100 µM
- EC50 [8]: > 100 µM
- EC50 [9]: > 100 µM
- CC50 [13]: 6.1 µM
- MCC [18]: 20 µM
- EC50 [16]: > 100 µM

Compound: CC1(C)N=C(N)N=C(N)N1c1ccc(C(=O)O)cc1
- EC50 [1]: > 83 µM
- EC50 [2]: > 100 µM
- EC50 [3]: > 100 µM
- EC50 [4]: > 100 µM
- EC50 [5]: > 100 µM
- EC50 [6]: > 100 µM
- EC50 [7]: > 100 µM
- EC50 [8]: > 100 µM
- EC50 [9]: > 100 µM
- EC50 [10]: > 100 µM
- EC50 [11]: > 100 µM
- EC50 [12]: > 100 µM
- CC50 [13]: > 100 µM
- EC50 [14]: > 100 µM
- EC50 [15]: > 83 µM
- EC50 [16]: > 100 µM

Compound: CC1(C)N=C(N)N=C(N)N1c1ccccc1Cl
- EC50 [1]: > 83 µM
- EC50 [2]: > 100 µM
- EC50 [3]: 19 µM
- EC50 [4]: 48 µM
- EC50 [5]: > 100 µM
- EC50 [6]: 56 µM
- EC50 [7]: > 100 µM
- EC50 [8]: > 100 µM
- EC50 [9]: > 100 µM
- EC50 [10]: > 100 µM
- EC50 [11]: > 100 µM
- EC50 [12]: > 100 µM
- CC50 [13]: > 100 µM
- EC50 [14]: > 100 µM
- EC50 [15]: 34 µM
- EC50 [16]: > 100 µM

Compound: CC1(C)N=C(N)N=C(N)N1c1ccc(Cl)c(Cl)c1 [CHLORCYCLOGUANIL]
- EC50 [1]: 0.72 µM
- EC50 [2]: > 100 µM
- EC50 [3]: 0.03 µM
- EC50 [4]: 0.0075 µM
- EC50 [5]: > 100 µM
- EC50 [6]: 0.08 µM
- EC50 [7]: > 100 µM
- EC50 [8]: > 100 µM
- EC50 [9]: > 100 µM
- EC50 [10]: 0.55 µM
- EC50 [11]: > 100 µM
- EC50 [12]: 0.35 µM
- CC50 [13]: 6.7 µM
- EC50 [14]: 3.8 µM
- EC50 [15]: 1.4 µM
- EC50 [16]: > 100 µM

Compound: NC1=NC(c2ccccc2)N(c2ccc(Cl)cc2)C(N)=N1 (stereo not drawn)
- EC50 [1]: > 83 µM
- EC50 [2]: > 100 µM
- EC50 [3]: > 100 µM
- EC50 [4]: > 100 µM
- EC50 [5]: > 100 µM
- EC50 [6]: > 100 µM
- EC50 [7]: > 100 µM
- EC50 [8]: > 100 µM
- EC50 [9]: > 100 µM
- EC50 [10]: > 100 µM
- EC50 [11]: > 100 µM
- EC50 [12]: > 100 µM
- CC50 [13]: > 100 µM
- EC50 [14]: > 100 µM
- EC50 [15]: > 83 µM
- EC50 [16]: > 100 µM

Compound: CC1(C)N=C(N)N=C(N)N1c1ccc([N+](=O)[O-])cc1
- EC50 [1]: > 83 µM
- EC50 [2]: > 100 µM
- EC50 [3]: 7.8 µM
- EC50 [4]: 27 µM
- EC50 [5]: > 100 µM
- EC50 [6]: 35 µM
- EC50 [7]: > 100 µM
- EC50 [8]: > 100 µM
- EC50 [9]: > 100 µM
- EC50 [10]: > 100 µM
- EC50 [11]: > 100 µM
- EC50 [12]: > 100 µM
- CC50 [13]: > 100 µM
- EC50 [14]: > 100 µM
- EC50 [15]: > 83 µM
- EC50 [16]: > 100 µM

Compound: CCCC1N=C(N)N=C(N)N1c1ccc(Cl)cc1 (stereo not drawn)
- EC50 [1]: > 83 µM
- EC50 [2]: > 100 µM
- EC50 [3]: > 100 µM
- EC50 [4]: > 100 µM
- EC50 [5]: > 100 µM
- EC50 [6]: 29 µM
- EC50 [7]: > 100 µM
- EC50 [8]: > 100 µM
- EC50 [9]: > 100 µM
- EC50 [10]: > 100 µM
- EC50 [11]: > 100 µM
- EC50 [12]: > 100 µM
- CC50 [13]: > 100 µM
- EC50 [14]: > 100 µM
- EC50 [15]: > 83 µM
- EC50 [16]: > 100 µM

— ChEMBL document CHEMBL4052640 (Eur J Med Chem, 2017)
